Results published in article PMC11314561, “Design and Synthesis of Novel Aminoindazole-pyrrolo[2,3-b]pyridine Inhibitors of IKKα That Selectively Perturb Cellular Non-Canonical NF-κB Signalling” (Molecules, 2024).
Converted amounts (≈) assume the structure as drawn. Read-outs that look alike come from different tables or passages of the source.

What was measured:
IKKα = molecular target: T1, IKKα (Homo sapiens, UniProt O15111); test: DELFIA kinase assay, IKKα; type: biochemical; details: DELFIA kinase assay
T1 sequence (O15111 1-745): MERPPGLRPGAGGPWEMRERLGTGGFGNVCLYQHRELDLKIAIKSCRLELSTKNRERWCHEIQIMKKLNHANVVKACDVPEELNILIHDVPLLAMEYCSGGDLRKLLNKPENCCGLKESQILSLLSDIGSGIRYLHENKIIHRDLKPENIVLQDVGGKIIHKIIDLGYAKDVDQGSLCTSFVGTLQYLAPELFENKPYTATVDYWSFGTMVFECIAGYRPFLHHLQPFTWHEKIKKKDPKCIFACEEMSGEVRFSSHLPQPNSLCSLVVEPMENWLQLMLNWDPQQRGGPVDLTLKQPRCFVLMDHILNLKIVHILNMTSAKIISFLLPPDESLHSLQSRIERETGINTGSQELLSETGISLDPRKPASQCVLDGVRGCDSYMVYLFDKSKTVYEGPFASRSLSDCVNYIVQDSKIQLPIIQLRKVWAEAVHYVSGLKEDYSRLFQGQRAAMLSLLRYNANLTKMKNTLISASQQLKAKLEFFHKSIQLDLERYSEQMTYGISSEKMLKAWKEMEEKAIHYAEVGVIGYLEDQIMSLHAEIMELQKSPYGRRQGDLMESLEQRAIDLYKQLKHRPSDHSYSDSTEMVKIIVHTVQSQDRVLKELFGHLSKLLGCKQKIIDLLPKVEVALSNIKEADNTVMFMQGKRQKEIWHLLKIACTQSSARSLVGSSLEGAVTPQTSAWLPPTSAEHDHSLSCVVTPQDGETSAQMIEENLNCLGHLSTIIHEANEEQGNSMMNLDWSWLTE
From the text: To examine the pyrrolo[2,3-b]pyridines as an alternative scaffold, we adopted the AIPP core because it had similar dimensions to SU909 (1), with HBD/HBA motifs positioned at the scaffold extremities to interact with both the hinge region and the G-loop wall of IKKα, a rationale we had previously proposed as the basis for imparting selectivity. A preliminary set of AIPP derivatives was designed and synthesised to explore its utility as an IKK-targeting scaffold, whilst incorporating additional functionality through which to introduce selectivity for the IKKα isoform (2–4; Figure 3). This was achieved by initially adopting two different approaches: either appending a hydrophobic moiety to the pyrrolo[2,3-b]pyridine motif as a fused form to afford the tricyclic derivatives 2 and 3, or as a phenyl substituent to introduce flexibility with respect to the central pyrrolo[2,3-b]pyridine moiety in 4. When assessed against IKKα and IKKβ using our in-house DELFIA kinase assay […] The pyrrolo[2,3-b]pyridine was bound to the hinge region in the classical HBA/HBD motif with the GK+3 amide backbone, whilst the aminoindazole projected towards the top of the pocket to interact with the G-loop (Figure 4A). […] In both isoforms, the 2-phenyl moiety protruded away from the hinge towards the exposed solvent area.
(§1) IKKα and IKKβ inhibitory activity were determined using a dissociation-enhanced ligand fluorescent immunoassay (DELFIA) based on the protocol of HTScan™ IKKβ Kinase Assay (Cell Signaling Technology, Danvers, MA, USA) as described in [24].

IKKβ = molecular target: T2, IKKβ (Homo sapiens, UniProt O14920); test: DELFIA kinase assay, IKKβ; type: biochemical
T2 sequence (O14920 1-756): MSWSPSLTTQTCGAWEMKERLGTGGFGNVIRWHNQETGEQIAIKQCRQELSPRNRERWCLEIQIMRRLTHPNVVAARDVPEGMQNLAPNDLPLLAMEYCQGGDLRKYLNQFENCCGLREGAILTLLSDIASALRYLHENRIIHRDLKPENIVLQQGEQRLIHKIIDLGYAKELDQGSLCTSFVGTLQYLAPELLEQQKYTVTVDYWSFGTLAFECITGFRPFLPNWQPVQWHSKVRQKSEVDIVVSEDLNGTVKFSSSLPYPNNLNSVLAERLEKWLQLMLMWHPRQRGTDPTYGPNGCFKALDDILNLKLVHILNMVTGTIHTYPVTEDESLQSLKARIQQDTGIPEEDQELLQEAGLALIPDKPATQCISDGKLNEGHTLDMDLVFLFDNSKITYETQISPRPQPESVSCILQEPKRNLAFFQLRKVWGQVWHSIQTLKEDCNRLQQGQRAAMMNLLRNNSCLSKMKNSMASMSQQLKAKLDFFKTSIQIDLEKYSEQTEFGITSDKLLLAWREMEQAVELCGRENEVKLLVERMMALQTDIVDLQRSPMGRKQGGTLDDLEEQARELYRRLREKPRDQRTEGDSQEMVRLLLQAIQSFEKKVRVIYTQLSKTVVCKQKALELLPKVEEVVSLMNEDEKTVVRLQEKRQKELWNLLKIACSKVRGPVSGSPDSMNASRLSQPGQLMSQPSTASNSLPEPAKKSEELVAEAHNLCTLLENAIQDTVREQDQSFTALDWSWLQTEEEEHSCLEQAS
Procedure: as §1

Turbidimetric solubility = type: physicochemical; details: pH 7.4, aqueous buffer, kinetic from dmso stock, 0.01 M phosphate-buffered saline pH7.4
Procedure: Pharmacokinetic studies were contracted to Sygnature Discovery Limited. Turbidimetric Solubility was determined by diluting compound solutions (1 μM, 3 μM, 10 μM, 30 μM, 100 μM) prepared in DMSO into 0.01 M phosphate-buffered saline pH7.4. Turbidimetry was used as the endpoint by measuring absorbance at 620 nm.

Row | SMILES | Ki (IKKα) [nM] | Ki (IKKβ; read-out: Ki Values IKKβ) [nM] | solubility (Turbidimetric solubility) [µM] | Ki (IKKβ; Ki Values IKKβ) [nM]
1 | Nc1n[nH]c2ccc(-c3ccnc4[nH]c5c(c34)CCCC5)cc12 [Compound 2, 5-(6,7,8,9-Tetrahydro-5H-pyrido[2,3-b]indol-4-yl)-1H-indazol-3-amine] | 2 | 77 |  | 
2 | Nc1n[nH]c2ccc(-c3ccnc4[nH]c5ccccc5c34)cc12 [Compound 3] | 3 | 5 |  | 
3 | Nc1n[nH]c2ccc(-c3ccnc4[nH]c(-c5ccccc5O)cc34)cc12 [Compound 5a] | 4 | 42 |  | 
4 | Nc1n[nH]c2ccc(-c3ccnc4[nH]c(-c5cccc(S(=O)(=O)N6CCOCC6)c5)cc34)cc12 [Compound 5aa] | 25 | 149 |  | 
5 | CCOc1ccccc1-c1cc2c(-c3ccc4[nH]nc(N)c4c3)ccnc2[nH]1 [Compound 5b] | 8 | 86 |  | 
6 | Nc1cccc(-c2cc3c(-c4ccc5[nH]nc(N)c5c4)ccnc3[nH]2)c1 [Compound 5c] | 5 | 28 |  | 
7 | Nc1n[nH]c2ccc(-c3ccnc4[nH]c(-c5cccc(O)c5)cc34)cc12 [Compound 5d] | 5 | 26 |  | 
8 | COc1cccc(-c2cc3c(-c4ccc5[nH]nc(N)c5c4)ccnc3[nH]2)c1 [Compound 5e] | 5 | 40 |  | 
9 | Nc1n[nH]c2ccc(-c3ccnc4[nH]c(-c5cc(O)cc(F)c5)cc34)cc12 [Compound 5f] | 4 | 42 |  | 
10 | COc1cc(F)cc(-c2cc3c(-c4ccc5[nH]nc(N)c5c4)ccnc3[nH]2)c1 [Compound 5g] | 3 | 32 |  | 
11 | Nc1n[nH]c2ccc(-c3ccnc4[nH]c(-c5cccc(C(=O)O)c5)cc34)cc12 [Compound 5h] | 8 | 168 |  | 
12 | NC(=O)c1cccc(-c2cc3c(-c4ccc5[nH]nc(N)c5c4)ccnc3[nH]2)c1 [Compound 5i] | 5 | 159 |  | 
13 | CS(=O)(=O)Nc1cccc(-c2cc3c(-c4ccc5[nH]nc(N)c5c4)ccnc3[nH]2)c1 [Compound 5j] | 3 | 109 |  | 
14 | CS(=O)(=O)c1cccc(-c2cc3c(-c4ccc5[nH]nc(N)c5c4)ccnc3[nH]2)c1 [Compound 5k] | 3 | 36 |  | 
15 | COCCC(=O)Nc1cccc(-c2cc3c(-c4ccc5[nH]nc(N)c5c4)ccnc3[nH]2)c1 [Compound 5l] | 6 | 25 |  | 
16 | COCCNC(=O)c1cccc(-c2cc3c(-c4ccc5[nH]nc(N)c5c4)ccnc3[nH]2)c1 [Compound 5m] | 15 | 107 |  | 
17 | Nc1n[nH]c2ccc(-c3ccnc4[nH]c(-c5cccc(CNC6CCCC6)c5)cc34)cc12 [Compound 5n] | 10 | 191 |  | 
18 | CC(C)COc1cccc(-c2cc3c(-c4ccc5[nH]nc(N)c5c4)ccnc3[nH]2)c1 [Compound 5o] | 19 | 458 |  | 
19 | Nc1n[nH]c2ccc(-c3ccnc4[nH]c(-c5cccc(CNc6ccccc6)c5)cc34)cc12 [Compound 5p] | 35 | 470 |  | 
20 | Nc1n[nH]c2ccc(-c3ccnc4[nH]c(-c5ccccc5OCc5ccccc5)cc34)cc12 [Compound 5q] | 57 | 1060 |  | 
21 | Nc1n[nH]c2ccc(-c3ccnc4[nH]c(-c5ccc(OCc6ccccc6)cc5)cc34)cc12 [Compound 5s] | 16 | 189 |  | 
22 | Cc1ccc(S(=O)(=O)Nc2cccc(-c3cc4c(-c5ccc6[nH]nc(N)c6c5)ccnc4[nH]3)c2)cc1 [Compound 5t] | 10 | 1050 |  | 
23 | Cc1ccc(S(=O)(=O)Nc2ccc(-c3cc4c(-c5ccc6[nH]nc(N)c6c5)ccnc4[nH]3)cc2)cc1 [Compound 5u] | 4 | 67 |  | 
24 | CN1CCN(C(=O)c2cccc(-c3cc4c(-c5ccc6[nH]nc(N)c6c5)ccnc4[nH]3)c2)CC1 [Compound 5v] | 24 | 215 |  | 
25 | Nc1n[nH]c2ccc(-c3ccnc4[nH]c(-c5cccc(OCc6ccccn6)c5)cc34)cc12 [Compound 5w] | 16 | 402 |  | 
26 | Nc1n[nH]c2ccc(-c3ccnc4[nH]c(-c5cccc(OCC6CCOCC6)c5)cc34)cc12 [Compound 5x] | 8 | 122 |  | 
27 | Nc1n[nH]c2ccc(-c3ccnc4[nH]c(-c5cccc(OCCN6CCOCC6)c5)cc34)cc12 [Compound 5y] | 9 | 29 |  | 
28 | COc1ccc(COc2cccc(-c3cc4c(-c5ccc6[nH]nc(N)c6c5)ccnc4[nH]3)c2)cc1 [Compound 5z] | 43 | 166 |  | 
29 | COCCNc1cc(OCc2ccccc2)cc(-c2cc3c(-c4ccc5[nH]nc(N)c5c4)ccnc3[nH]2)c1 [Compound 6c] | 26 |  | 2 (≈ 1.01 µg/mL) | 1530

More lines, main results first:

Row | Ki (IKKα) [nM] | Ki (IKKβ; read-out: Ki Values IKKβ) [nM] | solubility (Turbidimetric solubility) [µM] | SMILES | Ki (IKKβ; Ki Values IKKβ) [nM]
30 | 59 | 5030 |  | Nc1n[nH]c2ccc(-c3ccnc4[nH]c(-c5cc(F)cc(OCc6ccccc6)c5)cc34)cc12 [Compound 6a] | 
31 | 29 | 1210 | 3.75 (≈ 1.95 µg/mL) | COCCOCc1cc(OCc2ccccc2)cc(-c2cc3c(-c4ccc5[nH]nc(N)c5c4)ccnc3[nH]2)c1 [Compound 6b] | 
32 | 12 | 22 |  | Nc1n[nH]c2ccc(-c3ccnc4[nH]c(-c5ccc(OCc6ccccc6)nc5)cc34)cc12 [Compound 6d] | 
33 | 21 | 1550 | 6.5 (≈ 2.81 µg/mL) | Nc1n[nH]c2ccc(-c3ccnc4[nH]c(-c5cncc(OCc6ccccc6)c5)cc34)cc12 [Compound 6e] | 
34 | 33 | 503 | 3.75 (≈ 1.69 µg/mL) | Nc1n[nH]c2ccc(-c3ccnc4[nH]c(-c5cc(F)nc(CNc6ccccc6)c5)cc34)cc12 [Compound 6f] | 
35 | 5 | 1180 | 2 (≈ 0.897 µg/mL) | Nc1n[nH]c2ccc(-c3ccnc4[nH]c(-c5ccnc(SCc6ccccc6)c5)cc34)cc12 [Compound 6h] | 
36 | 127 | 3000 |  | Nc1n[nH]c2ccc(-c3ccnc4[nH]c(-c5cc(F)nc(SCc6ccccc6)c5)cc34)cc12 [Compound 6i] | 
37 | 25 | 2300 | 2 (≈ 0.865 µg/mL) | Nc1n[nH]c2ccc(-c3ccnc4[nH]c(-c5cc(OCc6ccccc6)ccn5)cc34)cc12 [Compound 6j] | 
38 | 42 | 1600 |  | Nc1n[nH]c2ccc(-c3ccnc4[nH]c(-c5ccnc(OCCc6ccccc6)c5)cc34)cc12 [Compound 6l] | 
